Assay [1] deals with Transitional endoplasmic reticulum ATPase (Homo sapiens, UniProt P55072, C522A). The experiment in a line: C522A mutant p97 ATPase inhibitors, dose response, counter-screen for p97 inhibitor project, biochemical, luminescence (AID 1544). For orientation: A counterscreen serves to expose hits that act by an unwanted route or on another target.
The target in assay [2] is Transitional endoplasmic reticulum ATPase (Homo sapiens, UniProt P55072). In words: p97 ATPase inhibitors, dose response, biochemical (AID 1534).
Assay [3] concerns the target G2/mitotic-specific cyclin-B1 (Homo sapiens, UniProt P14635). The experiment in a line: Counterscreen assay for inhibitors of Wee1 degradation: dose response cell-based assay to identify inhibitors of cyclin B degradation. [Related pubchem assays: 1410, 1321 ]. Type of assay: functional.
For a further assay, the target named is Wee1-like protein kinase (Homo sapiens, UniProt P30291). In words: Dose Response Cell-based Assay for Inhibitors of Wee1 Degradation. [Related pubchem assays: 1410, 1321 ]. Format: functional.
Chain of Wee1-like protein kinase (P30291 whole entry): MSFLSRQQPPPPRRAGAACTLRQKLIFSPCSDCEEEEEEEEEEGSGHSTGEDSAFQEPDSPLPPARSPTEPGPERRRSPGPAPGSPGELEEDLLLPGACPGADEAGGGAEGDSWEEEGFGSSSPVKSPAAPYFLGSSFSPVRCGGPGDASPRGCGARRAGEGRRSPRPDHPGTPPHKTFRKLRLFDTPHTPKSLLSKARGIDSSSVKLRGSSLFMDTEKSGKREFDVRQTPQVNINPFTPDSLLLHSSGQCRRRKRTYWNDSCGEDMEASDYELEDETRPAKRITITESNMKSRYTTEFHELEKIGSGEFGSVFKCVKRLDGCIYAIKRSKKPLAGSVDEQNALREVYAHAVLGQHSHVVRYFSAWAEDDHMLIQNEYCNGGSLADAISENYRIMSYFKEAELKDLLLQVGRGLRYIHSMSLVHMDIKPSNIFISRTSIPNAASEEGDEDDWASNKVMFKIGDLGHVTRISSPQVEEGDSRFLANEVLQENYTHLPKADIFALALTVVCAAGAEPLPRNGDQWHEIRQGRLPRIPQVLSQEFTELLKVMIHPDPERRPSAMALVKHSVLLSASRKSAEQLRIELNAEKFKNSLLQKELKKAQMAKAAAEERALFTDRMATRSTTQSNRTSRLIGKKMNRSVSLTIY
The nature of assay [4]: Counterscreen for IDE inhibitors: Luminescence-based cell-based high throughput dose response assay to identify compounds that are cytotoxic to HEK cells. [Related pubchem assays: 434962 (Primary screen (IDE inhibitors in singlicate)), 449730 (Counterscreen (Cytotoxicity in triplicate)), 435028 (Confirmation (IDE inhibitors in triplicate)) …. Type of assay: functional. The note with it: HEK293.

The next assay concerns the target T1, Insulin-degrading enzyme (Homo sapiens, UniProt P14735).
T1 sequence (P14735 whole entry): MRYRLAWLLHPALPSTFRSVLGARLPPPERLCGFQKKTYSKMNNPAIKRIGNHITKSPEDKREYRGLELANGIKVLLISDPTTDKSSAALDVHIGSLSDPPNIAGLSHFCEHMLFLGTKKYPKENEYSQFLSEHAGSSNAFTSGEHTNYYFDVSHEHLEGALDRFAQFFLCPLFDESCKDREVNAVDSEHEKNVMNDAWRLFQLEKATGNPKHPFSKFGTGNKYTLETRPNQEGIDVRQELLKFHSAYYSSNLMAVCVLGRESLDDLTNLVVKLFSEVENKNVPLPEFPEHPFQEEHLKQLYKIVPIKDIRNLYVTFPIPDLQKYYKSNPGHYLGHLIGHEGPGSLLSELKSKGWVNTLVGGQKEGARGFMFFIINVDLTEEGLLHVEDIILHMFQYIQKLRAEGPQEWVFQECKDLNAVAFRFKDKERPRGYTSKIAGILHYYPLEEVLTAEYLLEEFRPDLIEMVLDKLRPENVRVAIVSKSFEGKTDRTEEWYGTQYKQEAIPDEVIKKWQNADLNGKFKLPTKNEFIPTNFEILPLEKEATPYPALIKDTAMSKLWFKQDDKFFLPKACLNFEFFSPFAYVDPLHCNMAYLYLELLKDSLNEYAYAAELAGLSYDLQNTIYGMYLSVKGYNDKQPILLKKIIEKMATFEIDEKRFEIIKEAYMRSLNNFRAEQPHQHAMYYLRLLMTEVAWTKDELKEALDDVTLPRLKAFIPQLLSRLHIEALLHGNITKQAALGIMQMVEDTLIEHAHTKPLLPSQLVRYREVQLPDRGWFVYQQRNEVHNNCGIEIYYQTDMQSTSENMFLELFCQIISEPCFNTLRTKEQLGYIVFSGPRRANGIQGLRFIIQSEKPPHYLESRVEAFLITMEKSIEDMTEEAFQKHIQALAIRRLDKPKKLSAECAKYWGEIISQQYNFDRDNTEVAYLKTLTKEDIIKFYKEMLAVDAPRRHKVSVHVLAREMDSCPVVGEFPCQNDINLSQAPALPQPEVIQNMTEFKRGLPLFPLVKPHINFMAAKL
In words: Dose Response: Fluorescence polarization-based cell-based high throughput dose response assay for inhibitors of insulin-degrading enzyme (IDE). [Related pubchem assays: 434962 (Primary screen (IDE inhibitors in singlicate)), 449730 (Counterscreen (Cytotoxicity in triplicate)), 435028 (Confirmation (IDE inhibitors in triplicate)), 434984 (Summary …. Format: functional. (In general: In fluorescence polarisation assays a small probe gives low polarisation when free and higher when bound to something large.)

Assay [5] addresses T2, Eukaryotic translation initiation factor 2-alpha kinase 3 (Homo sapiens, UniProt Q9NZJ5). In words: Dose response cell-based high-throughput screening assay to measure PERK inhibition. [Related pubchem assays: 1416 ]. Type of assay: functional.
Assay [6] addresses T2, Eukaryotic translation initiation factor 2-alpha kinase 3. The experiment in a line: Counterscreen assay for PERK inhibitors: Dose response cell-based high throughput screening assay to measure inhibition of PERK at 6 hours. [Related pubchem assays: 1522, 1416 ]. Format: functional.
The next assay relates to Staphylococcus aureus. In words: Inhibitors of Bacterial Quorum Sensing Structure Activity Relationship (SAR) Analysis: Dose Response Assay. [Related pubchem assays: 700, 527 ]. Format: functional, organism-based.
Assay [7] deals with Glyceraldehyde-3-phosphate dehydrogenase (Homo sapiens, UniProt P04406).
Chain of Glyceraldehyde-3-phosphate dehydrogenase (P04406 whole entry): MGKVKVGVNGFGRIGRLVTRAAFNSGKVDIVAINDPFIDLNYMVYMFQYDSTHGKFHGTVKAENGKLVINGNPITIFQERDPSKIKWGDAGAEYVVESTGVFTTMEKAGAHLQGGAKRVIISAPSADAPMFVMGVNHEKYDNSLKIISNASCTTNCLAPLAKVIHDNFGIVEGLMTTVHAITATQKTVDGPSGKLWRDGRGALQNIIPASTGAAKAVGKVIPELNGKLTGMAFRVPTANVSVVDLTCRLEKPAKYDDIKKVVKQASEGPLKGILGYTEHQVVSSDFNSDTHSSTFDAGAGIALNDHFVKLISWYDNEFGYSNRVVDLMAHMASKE
Assay [8] concerns the target Heat shock cognate 71 kDa protein (Homo sapiens, UniProt P11142). The experiment in a line: In Vitro Hsc70 Dose Response Fluorescence Polarization Assay. [Related pubchem assays: 1072 ].
For assay [9], the target named is Heat shock 70 kDa protein 1A (Homo sapiens, UniProt P0DMV8). In words: inhibition of Hsp70 binding activity – biochemical, fluorescence polarization, SAR follow-up (AID 1072).
Chain of Heat shock 70 kDa protein 1A (P0DMV8 whole entry): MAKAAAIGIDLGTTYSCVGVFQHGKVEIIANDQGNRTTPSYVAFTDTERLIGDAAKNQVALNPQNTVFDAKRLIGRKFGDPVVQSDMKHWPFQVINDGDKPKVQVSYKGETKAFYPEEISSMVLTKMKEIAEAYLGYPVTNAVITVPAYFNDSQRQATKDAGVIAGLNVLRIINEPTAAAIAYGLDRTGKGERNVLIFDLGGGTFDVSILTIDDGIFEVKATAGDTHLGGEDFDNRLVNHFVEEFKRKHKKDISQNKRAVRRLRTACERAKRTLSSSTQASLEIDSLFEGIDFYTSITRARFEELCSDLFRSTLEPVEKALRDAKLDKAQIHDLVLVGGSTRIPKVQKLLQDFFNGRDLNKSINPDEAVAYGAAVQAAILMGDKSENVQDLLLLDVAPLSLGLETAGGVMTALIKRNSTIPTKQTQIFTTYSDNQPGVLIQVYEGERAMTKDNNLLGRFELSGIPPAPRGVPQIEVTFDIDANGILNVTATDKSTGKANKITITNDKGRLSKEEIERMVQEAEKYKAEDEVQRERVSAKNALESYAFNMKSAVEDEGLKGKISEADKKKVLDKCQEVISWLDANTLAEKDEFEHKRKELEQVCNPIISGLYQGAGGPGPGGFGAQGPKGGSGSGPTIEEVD
The target of assay [10] is Eukaryotic translation initiation factor 4H (Homo sapiens, UniProt Q15056). The experiment in a line: eIF4H binding inhibition – biochemical, uHTS, fluorescence polarization, translation initiation inhibitor project, primary screen (AID 2012).
Assay [11] concerns the target Polyadenylate-binding protein 1 (Homo sapiens, UniProt P11940). In words: blockers of PABP interaction with poly(A) – biochemical, fluorescence polarization, […] (AID 2014).
Assay [12] can be described thus: luciferase reporter signal suppression in cells – H4 neuroglioma cells, luminescence, dose response (AID 1990). Type of assay: functional, cell-based. Background: Reporter assays use an easily measured gene product as a stand-in for the process of interest.
Assay [13] can be described thus: luciferase reporter signal reduction – luminescence, H4-C neuroglioblastoma cells, dose response (AID 2458).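 Further: H4 neuroglioblastoma cells stably carrying a luciferase reporter gene fusion.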 Format: functional, cell-based.
The next assay can be described thus: cells. Format: functional, cell-based.
Assay [14] in a line: alpha-synuclein stem-loop luciferase translation blockers – H4 neuroglioma cells, luminescence, confirmation (AID 1988). Type of assay: functional, cell-based.
The nature of assay [15]: alpha-synuclein stem-loop translation blockers – luminescence, H4 neuroglioblastoma cells, dose confirmation, confirmation (AID 2454).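 Further: H4 neuroglioblastoma cells carrying an alpha-synuclein 5'UTR luciferase reporter; potency for inhibition of the luciferase signal.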 Format: functional, cell-based.
Assay [16] deals with Photoreceptor-specific nuclear receptor (Homo sapiens, UniProt Q9Y5X4). Format: functional.
Chain of Photoreceptor-specific nuclear receptor (Q9Y5X4 whole entry): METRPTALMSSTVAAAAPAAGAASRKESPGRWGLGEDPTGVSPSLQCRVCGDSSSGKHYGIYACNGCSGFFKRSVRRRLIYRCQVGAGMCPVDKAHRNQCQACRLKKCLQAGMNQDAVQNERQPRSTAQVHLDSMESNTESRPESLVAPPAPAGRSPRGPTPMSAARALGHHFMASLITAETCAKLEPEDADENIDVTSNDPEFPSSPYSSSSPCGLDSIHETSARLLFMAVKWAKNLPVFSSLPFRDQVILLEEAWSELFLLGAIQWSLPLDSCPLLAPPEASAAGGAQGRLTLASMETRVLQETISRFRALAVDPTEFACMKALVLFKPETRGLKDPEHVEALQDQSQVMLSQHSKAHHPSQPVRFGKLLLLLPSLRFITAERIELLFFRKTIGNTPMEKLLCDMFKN
In assay [17] the target is T3, E3 ubiquitin-protein ligase XIAP (Homo sapiens, UniProt P98170). The experiment in a line: Counter Screen using XIAP-Bir3 for Chemical Antagonists of Bir1/2 domains of IAP-family anti-apoptotic proteins. [Related pubchem assays (depositor defined):AID1018, AID1449, AID1514, AID1638, AID1749, AID1750, AID488957, AID488963].
T3 sequence (P98170 whole entry): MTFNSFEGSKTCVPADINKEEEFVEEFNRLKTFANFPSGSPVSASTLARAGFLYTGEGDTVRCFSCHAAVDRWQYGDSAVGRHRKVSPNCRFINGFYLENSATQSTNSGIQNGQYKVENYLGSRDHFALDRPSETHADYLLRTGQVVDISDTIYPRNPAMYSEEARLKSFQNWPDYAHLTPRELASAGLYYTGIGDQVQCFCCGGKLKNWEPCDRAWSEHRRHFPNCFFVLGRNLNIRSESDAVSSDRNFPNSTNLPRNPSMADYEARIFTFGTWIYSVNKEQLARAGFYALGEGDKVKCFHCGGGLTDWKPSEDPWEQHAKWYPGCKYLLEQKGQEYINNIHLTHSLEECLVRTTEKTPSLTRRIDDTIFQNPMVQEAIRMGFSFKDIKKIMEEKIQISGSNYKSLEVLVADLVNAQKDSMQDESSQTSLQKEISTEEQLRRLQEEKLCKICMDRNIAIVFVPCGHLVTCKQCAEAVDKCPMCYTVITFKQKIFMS
Assay [18] has as its target T3, E3 ubiquitin-protein ligase XIAP. The experiment in a line: small molecules displacing peptide from XIAP – biochemical, IAP family, fluorescence polarization (AID 1018). Format: functional.
Assay [19] concerns the target Peroxisome proliferator-activated receptor gamma/Nuclear receptor corepressor 2 (Homo sapiens, UniProt P37231+Q9Y618). Type of assay: functional.
A further assay addresses Chaperone protein dnaK (Escherichia coli, UniProt C3TRK2). The experiment in a line: E. coli DnaK binders, calorimetric Kd – biophysical, isothermal titration calorimetry, beta-domain, full-length DnaK, orthogonal assay for DnaK modulator project, SAR follow-up (AID 1495).
The target in the next assay is Cytochrome P450 2D6 (Homo sapiens, UniProt P10635). In words: qHTS Assay for Inhibitors and Substrates of Cytochrome P450 2D6. [Related pubchem assays: 410 ]. Format: ADME. As to conditions: read-out: Potency.
Assay [20] is described as follows: A Cell Based Secondary Assay To Explore Cytotoxicity of Compounds that Sensitize Mycobacterium Tuberculosis to Beta-Lactam Antibiotics. Type of assay: functional.
The target of the next assay is T4, Estrogen receptor (Homo sapiens, UniProt P03372).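 Further: potency for inhibiting coactivator peptide recruitment to the receptor.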
T4 sequence (P03372 whole entry): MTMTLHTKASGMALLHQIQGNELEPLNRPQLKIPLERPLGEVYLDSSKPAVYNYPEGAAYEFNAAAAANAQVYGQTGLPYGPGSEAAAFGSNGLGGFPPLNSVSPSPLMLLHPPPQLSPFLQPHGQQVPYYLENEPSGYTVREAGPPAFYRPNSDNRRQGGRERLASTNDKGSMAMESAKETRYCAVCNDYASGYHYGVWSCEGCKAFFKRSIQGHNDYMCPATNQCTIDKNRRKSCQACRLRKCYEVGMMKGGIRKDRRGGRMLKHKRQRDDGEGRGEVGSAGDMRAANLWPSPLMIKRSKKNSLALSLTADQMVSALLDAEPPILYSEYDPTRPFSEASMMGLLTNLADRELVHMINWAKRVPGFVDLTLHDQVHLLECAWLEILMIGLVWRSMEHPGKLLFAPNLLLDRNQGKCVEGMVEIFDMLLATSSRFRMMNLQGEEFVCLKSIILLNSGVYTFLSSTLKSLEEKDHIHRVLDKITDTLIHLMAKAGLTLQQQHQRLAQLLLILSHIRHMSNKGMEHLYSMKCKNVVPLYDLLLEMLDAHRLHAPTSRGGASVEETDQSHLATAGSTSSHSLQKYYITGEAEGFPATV

The structures appear in SMILES notation. Calls of active or inactive are those of the source. A value given as a limit tells only on which side of the number the result lay.

T2 sequence (Q9NZJ5 whole entry): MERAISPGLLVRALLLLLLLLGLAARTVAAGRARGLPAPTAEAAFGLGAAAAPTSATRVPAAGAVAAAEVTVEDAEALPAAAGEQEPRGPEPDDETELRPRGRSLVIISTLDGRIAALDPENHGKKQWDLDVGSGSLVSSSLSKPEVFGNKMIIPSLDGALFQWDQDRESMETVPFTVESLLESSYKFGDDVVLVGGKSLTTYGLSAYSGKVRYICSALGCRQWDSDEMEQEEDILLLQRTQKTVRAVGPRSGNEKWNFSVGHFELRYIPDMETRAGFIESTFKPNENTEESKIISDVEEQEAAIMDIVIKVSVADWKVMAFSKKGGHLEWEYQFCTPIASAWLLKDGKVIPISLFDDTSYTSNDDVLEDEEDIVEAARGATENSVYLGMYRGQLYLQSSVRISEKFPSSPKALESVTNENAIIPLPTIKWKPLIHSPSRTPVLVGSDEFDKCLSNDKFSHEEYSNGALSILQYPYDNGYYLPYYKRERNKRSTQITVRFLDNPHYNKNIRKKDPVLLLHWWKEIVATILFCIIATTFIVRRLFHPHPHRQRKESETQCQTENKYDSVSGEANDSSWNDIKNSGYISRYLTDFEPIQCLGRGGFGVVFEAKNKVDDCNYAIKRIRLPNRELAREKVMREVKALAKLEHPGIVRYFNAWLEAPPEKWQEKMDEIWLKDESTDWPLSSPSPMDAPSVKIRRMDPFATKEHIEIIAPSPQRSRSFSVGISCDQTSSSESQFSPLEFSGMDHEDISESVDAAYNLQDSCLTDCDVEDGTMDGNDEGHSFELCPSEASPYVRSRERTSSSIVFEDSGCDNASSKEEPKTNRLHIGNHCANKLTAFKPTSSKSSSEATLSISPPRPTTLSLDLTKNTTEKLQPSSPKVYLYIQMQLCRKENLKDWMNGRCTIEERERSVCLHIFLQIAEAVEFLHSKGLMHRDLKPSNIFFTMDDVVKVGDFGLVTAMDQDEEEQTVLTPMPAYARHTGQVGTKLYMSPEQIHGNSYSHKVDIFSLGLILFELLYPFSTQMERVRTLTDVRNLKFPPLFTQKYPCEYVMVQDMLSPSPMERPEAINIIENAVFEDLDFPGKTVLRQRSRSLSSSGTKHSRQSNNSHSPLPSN
Chain of G2/mitotic-specific cyclin-B1 (P14635 whole entry): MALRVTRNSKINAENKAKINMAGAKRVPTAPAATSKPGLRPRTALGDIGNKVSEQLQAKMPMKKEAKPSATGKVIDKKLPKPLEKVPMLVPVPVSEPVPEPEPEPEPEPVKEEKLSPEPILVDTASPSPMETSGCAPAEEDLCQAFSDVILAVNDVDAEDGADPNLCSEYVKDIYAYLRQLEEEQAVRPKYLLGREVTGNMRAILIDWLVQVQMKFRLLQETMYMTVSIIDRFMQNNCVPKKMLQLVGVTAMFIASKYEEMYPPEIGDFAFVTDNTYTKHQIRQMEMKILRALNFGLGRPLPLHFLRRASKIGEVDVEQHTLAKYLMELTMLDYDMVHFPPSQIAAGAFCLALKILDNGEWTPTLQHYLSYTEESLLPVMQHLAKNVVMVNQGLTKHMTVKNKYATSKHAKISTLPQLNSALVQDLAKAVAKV
Chain of Chaperone protein dnaK (C3TRK2 whole entry): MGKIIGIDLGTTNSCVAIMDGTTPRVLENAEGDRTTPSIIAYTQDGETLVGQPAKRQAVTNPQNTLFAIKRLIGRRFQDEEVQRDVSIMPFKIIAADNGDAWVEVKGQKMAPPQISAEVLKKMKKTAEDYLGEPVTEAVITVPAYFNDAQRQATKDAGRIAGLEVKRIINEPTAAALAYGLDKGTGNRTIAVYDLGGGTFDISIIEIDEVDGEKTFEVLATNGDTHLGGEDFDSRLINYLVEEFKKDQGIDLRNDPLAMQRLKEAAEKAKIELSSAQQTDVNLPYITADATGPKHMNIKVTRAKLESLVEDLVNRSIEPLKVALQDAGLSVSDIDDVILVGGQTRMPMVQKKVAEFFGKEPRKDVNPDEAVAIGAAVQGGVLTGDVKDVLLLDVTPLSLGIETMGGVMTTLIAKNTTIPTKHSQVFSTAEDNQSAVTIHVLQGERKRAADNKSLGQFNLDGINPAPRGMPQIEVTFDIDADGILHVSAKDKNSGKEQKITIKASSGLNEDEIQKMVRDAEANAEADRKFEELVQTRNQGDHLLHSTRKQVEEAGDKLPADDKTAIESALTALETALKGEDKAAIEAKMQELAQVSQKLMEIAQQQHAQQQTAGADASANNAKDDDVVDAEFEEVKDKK

In the case of `COC(=O)c1ccccc1NC(=S)NC(=O)c1ccccc1C`, the concentration for half-maximal inhibition (IC50) in assay [1] and in [2] was > 50 µM (not active) throughout.

In the case of `O=C(COc1ccc(C(=O)c2ccc(F)cc2)cc1)NCc1ccc(F)cc1`, the EC50 (in assay [3]; on Wee1-like protein kinase) was > 49.7 µM (not active) each time.

On to `CCOc1ccccc1-n1c(SCC(=O)N2CCCc3ccccc32)nnc1-c1cccnc1`, for which the IC50 is 24.8 µM (not active) in assay [4] and > 55.9 µM (not active) against Insulin-degrading enzyme.

On to `CCC(C(=O)Nc1cccc(C(=O)O)c1C)c1ccccc1` (configuration not stated), for which the EC50 in assay [5] and in assay [6] was > 55.7 µM (not active) in each case.

With `O=C(Nc1ccc2c(c1)OCO2)C(c1ccccc1)N1CCCCC1` (configuration not stated), the IC50 in the assay on Staphylococcus aureus is 1.26 µM (active).

`O=C(Nc1ccc2c(c1)C1C=CCC1C(C(=O)O)N2)c1ccc(Cl)cc1Cl` (configuration not stated): the IC50 in assay [7], in assay [8] and in assay [9] was > 100 µM (not active) throughout.

As to `CC(C)C(OC(=O)c1ccco1)C(=O)NCc1ccco1` (configuration not stated), the values for the half-inhibitory concentration (IC50) in assay [10] and in [11] were 58 µM (active) and > 100 µM (inactive), respectively.

With `O=Cc1cn(Cc2ccc(F)cc2)c2ccccc12`, the EC50 in [12] was 7.56 µM (active); in assay [13], 1.85 µM (active); in “cells”, 1.05 µM (active); in [14], < 0.1 µM (active); in assay [15], > 12 µM (inconclusive).

As to `Cc1cccc(-n2c(=S)[nH]c3c(oc4ccccc43)c2=O)c1`, the IC50 in assay [16] was 5.11 µM (active); in [17], > 100 µM (inactive); in assay [18] it was > 100 µM (not active); in assay [19], 6.64 µM (active).

`O=C(NCc1cc(Cl)cc(Cl)c1)c1cccs1`: on Chaperone protein dnaK, the Kd was 2.8 µM (active).

In the case of `CCN1CCC[C@@H]1CNC(=O)c1cc(S(N)(=O)=O)ccc1OC`, at Cytochrome P450 2D6, the AC50 was 39.8 µM (inconclusive).

Take `COC(=O)/C(=C\Nc1ccc(Cl)c2ccccc12)c1ncc(C(F)(F)F)cc1Cl`: the CC50 in assay [20] was > 40 µM (active). Moreover, at Estrogen receptor, the IC50 is reported as > 50 µM (not active).

One may read the IC50 as the concentration that inhibits the measured activity by half. In general, EC50 refers to the concentration that produces a half-maximal response. The term Kd denotes the free concentration of one partner at which half of the binding sites on the other are occupied at equilibrium, for simple one-to-one binding. As usually defined, the CC50 is the concentration giving 50% cytotoxicity.

The record behind these values is ChEMBL document CHEMBL1201862, “PubChem BioAssay data set” (2004).
